The values below come from US9206124B2, “Treatment of drug-resistant cancer with 2-aryl-2-(3-indolyl) acetohydroxamates” (New Mexico Technical Research Foundation, priority 2013, dated 2015).

Assay [1] has as its system HeLa cervical and MCF-7 breast adenocarcinomas. Description: In vitro growth inhibition (MTT). In kind it is cell-based, human. The note with it: HeLa and MCF-7. The text has this: (§1) This finding led to an exploration of the SAR analyses by synthesizing the first generation compounds 3 containing diverse substituents at different positions in the 2-aryl-2-(3-indolyl)acetohydroxamate skeleton and testing this series for in vitro growth inhibition using the MTT colorimetric assay against two cell lines, human HeLa cervical and MCF-7 breast adenocarcinomas (Table 1). It emerged from these experiments that the substitution on the benzene ring of the indole moiety (R^2≠H) was not tolerated (e.g., 3abfa and 3acfa), whereas the nitrogen could be derivatized (R^1≠H) with only a small activity drop (e.g., 3bafa vs 3aafa).
(§2) Antiproliferative properties of the synthesized compounds were evaluated by the MTT assay. All compounds were dissolved in DMSO at a concentration of either 100 mM or 50 mM prior to cell treatment. The cells were trypsinized and seeded at 4×10^3 cells per well into 96-well plates. The cells were grown for 24 h, treated with compounds at concentrations ranging from 0.001 to 100 μM and incubated for 48 h in 200 μL media. 20 μL of MTT reagent in serum free medium (5 mg/mL) was added to each well and incubated further for 2 h. Media was removed and the resulting formazan crystals were re-solubilized in 200 μL of DMSO. A490 was measured using a Molecular Devices Thermomax plate reader. The experiments were performed in quadruplicate and repeated at least twice for each compound per cell line. Cells treated with 0.1% DMSO were used as a negative control; 1 μM phenyl arsine oxide (PAO) was used as a positive control.

The subject of assay [2] is Hs683 anaplastic oligodendroglioma cells. Description: MTT antiproliferative assay, Hs683. In kind it is cell-based. The note with it: Homo sapiens, Hs 683, 48 h treatment, ± SD, apoptosis-sensitive reference, read-out: GI50 in vitro, Hs683. The protocol:
(§3) As part of the ongoing efforts aimed at identification of compounds active against cancer cells displaying resistance to proapoptotic agents, the selected 2-aryl-2-(3-indolyl)-acetohydroxamates were evaluated for in vitro growth inhibition against a panel of additional cancer cell lines including those resistant to various proapoptotic stimuli, such as human T98G and U87 glioblastoma and human A549 non-small-cell-lung cancer (NSCLC), as well as an apoptosis-sensitive tumor model, such as human Hs683 anaplastic oligodendroglioma, used as a reference. The data reveal that for the most part these compounds retain the single-digit antiproliferatve GI50 values in this challenging cancer cell panel.
(§4) Human cancer cell lines were obtained from the American Type Culture Collection (ATCC, Manassas, Va., USA), the European Collection of Cell Culture (ECACC, Salisbury, UK) and the Deutsche Sammlung von Mikroorganismen and Zellkulturen (DSMZ, Braunschweig, Germany). Human cervical adenocarcinoma HeLa cells were cultured in DMEM supplemented with 10% fetal bovine serum (FBS). Human mammary carcinoma MCF-7 cells were cultured in RPMI supplemented with 10% FBS. The U87 cells (ATCC HTB-14) were cultured in DMEM culture medium, while the A549 cells (DSMZ ACC107) were cultured in RPMI culture medium supplemented with 10% heat-inactivated FBS. The glioblastoma multiforme Hs683 (ATCC HTB-138) and the T98G (ATCC CRL-1690) cell lines were cultivated in DMEM supplemented with 10% FBS. The Human uterine sarcoma MES-SA and MES-SA/Dx5 cells were cultured in RPMI-1640 medium supplemented with 10% FBS with MES SA/Dx5 maintained in the presence of 500 nM Doxorubicin (Sigma). SKMEL-28 cells (ATCC HTB72) and U373 glioblastoma cells (ECACC 08061901) were cultured in RPMI culture medium supplemented with 10% heat-inactivated FBS. Cell culture media were supplemented with 4 mM glutamine (Lonza code BE17-605E), 100 μg/mL gentamicin (Lonza code 17-5182), and penicillin-streptomycin (200 units/ml and 200 μg/ml) (Lonza code 17-602E). Neurosphere culture GBM 031810 was established using known methods and maintained in Neurobasal medium (Invitrogen Carlsbad, Calif.) with B27 supplement (20 ul/ml; Invitrogen), Glutamax (10 ul/ml; Invitrogen), fibroblast growth factor-2 (20 ng/ml; Peprotech, Rocky Hill, N.J., USA), epidermal growth factor (20 ng/ml; Peprotech), heparin (32 IE/ml; Sigma Aldrich, St. Louis, Mo.), and penicillin-streptomycin (1×, Invitrogen). Growth factors and heparin were renewed twice weekly. All cell lines were cultured in T25 flasks, maintained and grown at 37° C., 95% humidity, 5% CO2.
as §2
(Tetrazolium dyes change colour on reduction, which living cells bring about.)

The subject of assay [3] is MCF-7 breast adenocarcinoma cells. Description: MTT antiproliferative assay, MCF-7. The class given is cell-based. Particulars: Homo sapiens, MCF7, Table 2, 48 h treatment, ± SD, read-out: cell viability GI50, MCF7.
Text: as §1, §4, §2

Assay [4] concerns GBM 031810 neurosphere cells. Description: Antiproliferative effect on patient-derived GBM neurosphere culture. In kind it is cell-based. Particulars: Homo sapiens, average IC50 ± SD from three determinations, read-out: GI50 in vitro, GBM 031810 (average IC50).
Text: Given the ability of the hydroxamates to overcome drug resistance a few select compounds were further evaluated against glioma cells grown in neurosphere conditions, which are known to promote the growth of stem-like cells from human glioma tissue. Indeed, the neurospheres show the ability of self-renewal by regrowing in culture from individual cells, and can differentiate into multiple neural lineages and recapitulate human gliomas on both histological and genetic levels more faithfully than serum cultured glioma cell lines when injected into the brains of mice. Because, neurosphere cells are generally resistant to radiation and chemotherapy, the micromolar to submicromolar activity of the hydroxamates against the glioma neurosphere cell cultures is noteworthy (Table 4). […] It is worthy of note, that the unmethylated MGMT promoter leading to such temozolomide resistance is found in about half of all GBM patients, who respond poorly to temozolomide chemotherapy. To date, no alternative treatment exists for this group of patients.
as §4, with “Growth factors and heparin were renewed twice weekly. All cell lines were cultured in T25 flasks, maintained and grown at 37° C., 95% humidity, 5% CO2.” left out

Another assay deals with U87 glioblastoma cells. As to the kind of experiment: MTT antiproliferative assay, U87. The class given is cell-based, human. The note with it: for GI50: Homo sapiens, 48 h treatment, MTT, ± SD, read-out: GI50 in vitro, U87. The procedure: as §3, §4, §2
Another assay concerns T98G glioblastoma cells. Description: MTT antiproliferative assay, T98G. In kind it is cell-based. The note with it: Homo sapiens, 48 h treatment, ± SD, read-out: GI50 in vitro, T98G. The procedure:
as §3, §4, §2

Assay [5] deals with MES-SA/Dx5 MDR uterine sarcoma cells. As to the kind of experiment: MTT antiproliferative assay, MDR MES-SA/Dx5. In kind it is cell-based, human. The note with it: for GI50: Homo sapiens, MES-SA/Dx5, 48 h treatment, MTT, ± SD, MDR line, read-out: GI50 in vitro, MES-SA/Dx5. The protocol: (§5) Compared with the intrinsic drug resistance, as described above for such cancers as glioblastoma and melanoma, a large variety of tumors can also develop resistance to anticancer drugs resulting in MDR as explained previously. To assess whether the hydroxamates can overcome this resistance mechanism, selected hydroxamates were tested against MDR cells (Table 4). The MDR uterine sarcoma cell line MES-SA/Dx5 was utilized for this experiment. This cell line was established from the parent uterine sarcoma MES-SA, grown in the presence of increasing concentrations of doxorubicin and known to be resistant to a number of P-gp substrates.
as §4, §2
Selection of the MES-SA/Dx5 cell line was done according to W. G. Harker and B. I. Sikic, Cancer Res. 1985, p. 45, 4091. The cells were split and allowed to adhere overnight. […] The cells were maintained at this DOX concentration until their growth rate reached that of the untreated cells.

The subject of assay [6] is MES-SA uterine sarcoma cells. Description: MTT antiproliferative assay, MES-SA. Particulars: Homo sapiens, 48 h treatment, ± SD, read-out: GI50 in vitro, MES-SA. The class given is cell-based. The procedure:
as §5, with “substrates. […] In contrast, there was only a small variation in the sensitivities of the two cell lines towards the hydroxamates indicating their potential to overcome clinical multi-drug resistance.” for “substrates.”
as §4, §2

Assay [7] deals with A549 non-small-cell-lung cancer cells. Description: MTT antiproliferative assay, A549. In kind it is cell-based, human. The note with it: for GI50: Homo sapiens, A549, 48 h treatment, MTT, ± SD, read-out: GI50 in vitro, A549. The protocol: as §3, §4, §2
Assay [8] relates to HeLa cervical adenocarcinoma cells. Description: MTT antiproliferative assay, HeLa. In kind it is cell-based. Particulars: Homo sapiens, Table 2, 48 h treatment, ± SD, read-out: cell viability GI50, HeLa.
Text: as §1, §4, §2

Where [9] appears, read: FIG. 3, increasing concentration.

“Also recorded” adds a separate entry of the source.

Regarding `CC(C)c1ccc(C(C(=O)NO)c2c(-c3ccc4ccccc4c3)[nH]c3ccccc23)cc1` (centres unmarked) [Compound 3aafe], the “antiproliferative potency (GI50)” value in assay [1] was “single-digit micromolar; also recorded: submicromolar”. Further, the GI50 in assay [2] was determined as 6.1 ± 1 µM; in assay [3], 1.4 ± 0.1 µM; with U87 glioblastoma cells, 5 ± 0.5 µM; with T98G glioblastoma cells it was 8.8 ± 0.5 µM; in [5], 4.9 ± 1.9 µM; in assay [6], 1.7 ± 0.4 µM. Moreover, the GI50 was determined as 3.3 ± 0.6 µM in [7] and 0.68 ± 0.04 µM in assay [8]. In assay [4], the half-inhibitory concentration (IC50) is 3.4 ± 0.7 µM.

For `Cc1ccc(C(C(=O)NO)c2c(-c3ccc4ccccc4c3)[nH]c3ccccc23)cc1C` (centres unmarked) [Compound 3aafk], the “antiproliferative potency (GI50)” value in [1] is on record as “single-digit micromolar”. Also, the GI50 in assay [2] was 4.7 ± 1 µM; in [3] it was 2.5 ± 0.1 µM; with U87 glioblastoma cells, 6.7 ± 1.5 µM; in the assay with T98G glioblastoma cells, 7.5 ± 0.8 µM; in [5], 2.2 ± 0.8 µM; in assay [6] it was 1.8 ± 0.4 µM. Besides, the results for the GI50 in assay [7] and in assay [8] were 2.9 ± 0.6 µM and 2.7 ± 0.1 µM, respectively.

On to `CN(C)c1ccc(C(C(=O)NO)c2c(-c3ccc4ccccc4c3)[nH]c3ccccc23)cc1` (centres unmarked) [Compound 3aafp], for which the “antiproliferative potency (GI50)” value in assay [1] is listed as “single-digit micromolar; also recorded: submicromolar”. The GI50 in assay [2] was 5.1 ± 0.5 µM; in assay [3] it was 1.1 µM; in the assay with U87 glioblastoma cells it was 21.3 ± 1.6 µM; in the assay with T98G glioblastoma cells it was 1.9 ± 0.2 µM; in [5], 1.6 ± 0.6 µM; in [6], 0.8 ± 0.1 µM. Also, the GI50 in assay [7] was found to be 1.5 ± 0.3 µM; in [8], 0.6 ± 0.02 µM. Further, in [4], the IC50 turned out to be 5.6 ± 0.8 µM. For the same compound, the “activity against cell populations resistant to proapoptotic agents, U87” value with U87 glioblastoma cells (setting [9]) is reported as “potent growth inhibitory properties against most of the cells”. In addition, the “activity against cell populations resistant to proapoptotic agents, A549” value in assay [7] (setting [9]) is listed as “potent growth inhibitory properties against most of the cells”.

As to `CCCCn1c(-c2ccc3ccccc3c2)c(C(C(=O)NO)c2ccccc2)c2ccccc21` (centres unmarked) [Compound 3cafa], the “antiproliferative potency (GI50)” value in assay [1] is on record as “single-digit micromolar”. Besides, the GI50 came to 10.8 ± 0.5 µM in assay [2]; 7.8 ± 0.6 µM in assay [3]; 6.7 ± 0.3 µM in the assay with U87 glioblastoma cells; 12.3 ± 0.8 µM with T98G glioblastoma cells; 2.7 ± 0.3 µM in [5]; 5.9 ± 1.7 µM in [6]. The results for the GI50 in assay [7] and in [8] were 5.7 ± 0.5 µM and 5.6 ± 0.3 µM, respectively.

Take `O=C(NO)C(c1ccccc1)c1c(-c2ccc3ccccc3c2)n(Cc2ccccc2)c2ccccc12` (centres unmarked) [Compound 3eafa]: the “antiproliferative potency (GI50)” value in assay [1] is reported as “single-digit micromolar”. In addition, the GI50 in assay [2] was 11.2 ± 0.9 µM; in assay [3] it was 5.5 ± 0.2 µM; in the assay with U87 glioblastoma cells, 9.1 ± 0.3 µM; in the assay with T98G glioblastoma cells it was 10.6 ± 0.4 µM; in assay [5], 8.5 ± 0.9 µM; in assay [6], 7.1 ± 0.1 µM. The GI50 in assay [7] came to 5.8 ± 0.8 µM; in [8], 5.4 ± 0.3 µM.

On to `Cn1nnc2c(C(N)=O)ncn2c1=O` [Temozolomide, reference compound], for which, in assay [4], the IC50 was greater than 1000 µM.

For `CC[C@]1(O)C[C@@H]2CN(CCc3c([nH]c4ccccc34)[C@@](C(=O)OC)(c3cc4c(cc3OC)N(C)[C@H]3[C@@](O)(C(=O)OC)[C@H](OC(C)=O)[C@]5(CC)C=CCN6CC[C@]43[C@@H]65)C2)C1` [Vinblastine, reference compound], the figures for the GI50 in [5] and in assay [6] were 5 ± 1.4 µM and 0.006 ± 0.001 µM, respectively. Moreover, the “change in potency, MDR MES-SA/Dx5 versus parent MES-SA” value in assay [5] (MDR line compared with parent line) was “more than a thousand fold drop in potency”.

For orientation: IC50 means the concentration at which inhibition is half-maximal.
